This assay concerns the target T1, FLT3 (Homo sapiens, UniProt P36888).
T1 construct: purchased Upstate
T1 sequence (P36888 27-993): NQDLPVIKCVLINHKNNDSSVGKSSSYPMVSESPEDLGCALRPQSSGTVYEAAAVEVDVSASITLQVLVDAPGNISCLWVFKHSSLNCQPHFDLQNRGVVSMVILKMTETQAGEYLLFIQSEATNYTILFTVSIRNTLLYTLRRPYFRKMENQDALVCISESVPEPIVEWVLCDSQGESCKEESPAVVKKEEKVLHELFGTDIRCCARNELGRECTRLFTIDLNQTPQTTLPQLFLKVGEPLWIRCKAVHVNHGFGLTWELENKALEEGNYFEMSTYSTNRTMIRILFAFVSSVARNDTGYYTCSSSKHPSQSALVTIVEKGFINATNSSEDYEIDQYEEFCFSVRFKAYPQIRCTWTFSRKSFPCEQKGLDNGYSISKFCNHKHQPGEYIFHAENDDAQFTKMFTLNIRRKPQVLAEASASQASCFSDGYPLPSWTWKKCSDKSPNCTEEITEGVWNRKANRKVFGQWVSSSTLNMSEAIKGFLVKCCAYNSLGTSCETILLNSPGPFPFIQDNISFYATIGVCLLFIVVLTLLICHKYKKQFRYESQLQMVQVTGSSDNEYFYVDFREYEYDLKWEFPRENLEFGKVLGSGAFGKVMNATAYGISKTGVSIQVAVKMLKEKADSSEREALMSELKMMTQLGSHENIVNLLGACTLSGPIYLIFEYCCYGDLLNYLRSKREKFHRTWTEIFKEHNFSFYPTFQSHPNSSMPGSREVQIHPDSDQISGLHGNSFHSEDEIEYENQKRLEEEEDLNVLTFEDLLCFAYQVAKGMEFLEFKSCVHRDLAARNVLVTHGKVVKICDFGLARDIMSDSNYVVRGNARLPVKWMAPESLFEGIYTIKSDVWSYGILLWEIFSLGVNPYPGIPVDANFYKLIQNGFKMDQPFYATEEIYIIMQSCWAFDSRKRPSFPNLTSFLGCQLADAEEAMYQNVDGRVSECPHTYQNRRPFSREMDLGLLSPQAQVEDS
Nature of the assay: LabChip (Caliper) kinase assay, FLT3. Particulars: for inhibition at 0.01 µM / inhibition at 0.1 µM: FLT3, read-out: remaining kinase activity (in %) / percentage of inhibition; for inhibition at 0.01 µM: compound at 10 nM; for inhibition at 0.1 µM: compound at 100 nM; for IC50: Ftl3, ATP at Km, read-out: CI50 (the source's name). Type of assay: biochemical. The method, then: The analysis of kinase activity described here was performed using LabChip (Caliper Life Sciences), specifically the Caliper LC3000 and the EZ Reader II instruments.
The kinase assay used measures the conversion of a fluorescent peptide (substrate) to a phosphorylated product. The reaction mixture, in a microplate well, is introduced by a capillary in a chip where the non-phosphorylated substrate and the phosphorylated product are separated by […]. The intensity of the fluorescent signal over time is related to the reaction progress. The phosphorylated product migrates quicker than the non-phosphorylated substrate and the signals of the two forms of the peptide appear as differentiated peaks. The Caliper determines the peak height and calculates the ratio of product to the peak sum (P/(P+S)). This value is used to compare wells with compounds and wells with controls and thus determine the % of inhibition for the given product.
The followings kinases were used for the enzymatic inhibition studies, between brackets the value of the Michaelis-Menten constant, Km, of the ATP (Adenosine triphosphate) for each kinase, in μM: obtained from Carna Biosciences: MAPKAPK2 (4.6), AurA (3.6), AurB (5), PKCζ (3.8), RSK1 (23.3), PRAK (5), Erk1 (33.4), PKD2 (32.1), CK1d (16.3), CHK1 (33), ABL (61.7), FYN (36), LYNa (17), CHK2 (57.8), MET (79.5), LCK (28.5), SRC (38), GSK3β (7.3), Erk2 (62.1), PKACα (1.7), AKT2 (186.1), INSR (871.8), p38a (396.5), AKT1(48), MSK1 (21.2), PKCβ2 (84.8), ROCK2 (3.3), PIM2 (4.9), AMPK (38.6), KDR (164.8), IRAK4 (196.5), SGK1 (121.8), SYK (33.5); obtained from Invitrogen: CDK2 (57.6), BTK (123), HGK (80); obtained from Upstate: MST2 (36.6), PKGα (16), PAK2 (1.9), IGF1R (320), FGFR1 (171), MARK1 (33), CAMK2δ (22.4), c-TAK1 (66), DYRK1a (18.1), CaMK4 (3.9), FLT3 (350), c-Raf (6.2), P70S6K (95).
The compounds were dissolved in 100% DMSO and were diluted at 25 times the final concentration desired for the assay. In the case of the determination of Cl50, serial dilutions were made to reach eight concentrations and give rise to the inhibition curve. 1 μL of each concentration is transferred, in duplicate to a 384-well microplate. 12 μL of enzymatic buffer is added to each well containing purified kinase (several suppliers as indicated above), 100 mM HEPES, pH 7.5, 1 mM DTT (Calbiochem), 0.002% Brij-35 (Sigma) and also in presence of 10 mM MgCl2 as cofactor, except for INSR and IRAK4 wherein 10 mM MnCl2 is used instead of MgCl2. For the kinases CAMK26 and CAMK4, 1 mM CaCl2 and 6.7 μg/mL of calmodulin are also added. For KDR kinase, 0.05% of the CHAPSO detergent is added. For the c-Raf kinase, 10 mM MnCl2 is added. For PKCβ2 0.02 μg/mL of PS/PMA is added. For PKGα se 10 μM of cGMP (cyclic guanosine monophosphate) is added. The compound and the enzyme are left for 15 minutes preincubation and, then, the following are added to each well: 12 μL of peptide buffer/ATP containing 100 mM HEPES, pH 7.5, 1.5 μM peptide marker with fluorescein (specific for the corresponding kinase), ATP (at concentration KM), and 0.002% Brij-35 to start the reaction. Generally, the reactions are incubated for 1-1.5 h at ambient temperature to obtain an adequate conversion (15-40%) of the peptide to the phosphorylated product. The reactions were ended by the addition of 45 μL of buffer containing 0 mM EDTA. The microplates were read by the LabChip 3000 using a 12-channel LabChip. The P/(P+S) values were obtained as described above and the CI50 curves were generated using XIfit.
Table 9a has the 0150 data obtained in pairs of compound-kinase selected from the compounds of formula (VII), (VIII), (IX), (XVI), (XVII) and (XVIII) after taking inhibition measurements at 100 nM and 10 nM. Those couples that provide >70% of inhibition at 10 nM were consider for measuring its IC50. […]

The structures appear in SMILES notation.

With `C[C@H]1O[C@@H](n2c3ccccc3c3c4c(c5c6ccccc6[nH]c5c32)CNC4=O)C[C@@H](O)[C@@H]1O` [formula (XV), N^13-1′-β-D-olivosyl-k252c], the inhibition at 0.01 µM worked out at 76% and the inhibition at 0.1 µM is 106%.

Regarding `C[C@]12O[C@H](C[C@H](O)[C@H]1O)n1c3ccccc3c3c4c(c5c6ccccc6n2c5c31)CNC4=O` [formula (XVII), N^12-5′(S)-N^13-1′-(R)-L-olivosyl-k252c], the IC50 was determined as 0.54 nM.

`C[C@@H]1O[C@@H](n2c3ccccc3c3c4c(c5c6ccccc6[nH]c5c32)CNC4=O)[C@H](O)[C@H](O)[C@H]1O` [formula (XII), N^13-1′-β-L-rhamnosyl-k252c]: the inhibition at 0.01 µM is -7% and the inhibition at 0.1 µM is 35%.

As for `C[C@H]1O[C@@H](n2c3ccccc3c3c4c(c5c6ccccc6[nH]c5c32)C(=O)NC4=O)C[C@@H](O)[C@@H]1O` [formula (VI), N^13-1′-β-D-olivosylarcyriaflavin], the inhibition at 0.01 µM came to 51% and the inhibition at 0.1 µM is 98%.

Consider `C[C@]12O[C@H]([C@H](O)[C@H](O)[C@H]1O)n1c3ccccc3c3c4c(c5c6ccccc6n2c5c31)C(=O)NC4=O` [formula (VII), N^12-5′(S)-N^13-1′-(R)-L-rhamnosylarcyriaflavin], for which the IC50 came out at 0.57 nM.

Turning to `C[C@]12O[C@H](C[C@@H](O)[C@H]1O)n1c3ccccc3c3c4c(c5c6ccccc6n2c5c31)C(=O)NC4=O` [formula (IX), N^12-5′(S)-N^13-1′-(R)-L-digitoxosylarcyriaflavin], the IC50 worked out at 0.43 nM.

As for `C[C@]12O[C@H]([C@H](O)[C@H](O)[C@H]1O)n1c3ccccc3c3c4c(c5c6ccccc6n2c5c31)CNC4=O` [formula (XVI), N^12-5′(S)-N^13-1′-(R)-L-rhamnosyl-k252c], the IC50 is 0.59 nM.

`C[C@@H]1O[C@@H](n2c3ccccc3c3c4c(c5c6ccccc6[nH]c5c32)C(=O)NC4=O)C[C@H](O)[C@H]1O` [formula (IV), N^13-1′-β-L-olivosylarcyriaflavin]: the inhibition at 0.01 µM amounted to 20% and the inhibition at 0.1 µM was determined as 81%.

As to `C[C@@H]1O[C@@H](n2c3ccccc3c3c4c(c5c6ccccc6[nH]c5c32)CNC4=O)C[C@@H](O)[C@H]1O` [formula (XIV), N^13-1′-β-L-digitoxosyl-k252c], the inhibition at 0.01 µM is 20% and the inhibition at 0.1 µM was found to be 79%.

Regarding `C[C@@H]1O[C@@H](n2c3ccccc3c3c4c(c5c6ccccc6[nH]c5c32)C(=O)NC4=O)C[C@@H](O)[C@H]1O` [formula (V), N^13-1′-β-L-digitoxosylarcyriaflavin], the inhibition at 0.01 µM was found to be 63% and the inhibition at 0.1 µM came out at 95%.

On to `C[C@]12O[C@H](C[C@H](O)[C@H]1O)n1c3ccccc3c3c4c(c5c6ccccc6n2c5c31)C(=O)NC4=O` [formula (VIII), N^12-5′(S)-N^13-1′-(R)-L-olivosylarcyriaflavin], for which the IC50 is 0.56 nM.

For the molecule `C[C@@H]1O[C@@H](n2c3ccccc3c3c4c(c5c6ccccc6[nH]c5c32)CNC4=O)C[C@H](O)[C@H]1O` [formula (XIII), N^13-1′-β-L-olivosyl-k252c], the inhibition at 0.01 µM amounted to 34% and the inhibition at 0.1 µM was determined as 89%.

In the case of `C[C@@H]1O[C@@H](n2c3ccccc3c3c4c(c5c6ccccc6[nH]c5c32)C(=O)NC4=O)[C@H](O)[C@H](O)[C@H]1O` [formula (III), N^13-1′-β-L-rhamnosylarcyriaflavin], the inhibition at 0.01 µM is -10% and the inhibition at 0.1 µM was 25%.

(Values after patent US8598132B2, “Glycosylated indolocarbazoles, method for obtaining same and uses thereof” (Universidad de Oviedo, priority 2008, dated 2013).)
